In patent US12611400B2, “Solid lipid nano-composition containing berberine and cinnamonaldehyde effective in treating diabetes, dyslipidemia, and method of preparing the same” (priority 2020, dated 2026):

Tested on: white mouse models of P-407-induced dyslipidemia
Assay: Dyslipidemia regulation effects in P-407-induced endogenous dyslipidemia model in white mice
Assay type: in vivo
Details: oral 100 mg/kg, 7 days; for Total cholesterol: Reduction in comparison with the model batch: 100 mg/kg
Description: The test on white mice was divided into 5 batches, each batch having 10 animals. The batches were subjected to injection and oral administration as follows: • Batch 1 (biological control): 0.9% saline was intraperitoneally injected at a volume of 0.1 mL/10 g mouse body weight and 0.2 mL/10 g distilled water was orally administered. • Batch 2 (model): 2% P-407 solution was intraperitoneally injected at 200 mg/kg (0.1 mL/10 g), and 0.2 mL/10 g distilled water was orally administered. • Batch 3 (positive control): 2% P-407 solution was intraperitoneally injected at 200 mg/kg (0.1 mL/10 g), and 100 mg/kg (0.2 mL/10 g) atorvastatin was orally administered. • Batch 4: 2% P-407 solution was intraperitoneally injected at 200 mg/kg (0.1 mL/10 g), the composition was orally administered at 0.24 g/kg/day (equivalent to the clinical intended dose), at 0.2 mL/10 g. • Batch 5: 2% P-407 solution was intraperitoneally injected at 200 mg/kg dose (0.1 mL/10 g), the composition was orally administered at dosage 0.72 g/kg/day (3 times as much as the clinical intended dose), at 0.2 mL/10 g.
White mice were subjected to oral administration of distilled water and the sample drug in 7 continuous days before the intraperitoneal injection with P-407 solution. After P-407 injection, the mice were left to starve completely but were free to drink water. After 24 hours from the P-407 injection, all of the mice received carotid arterial blood sampling for TG, TC, and HDL-C quantitative testing. Non-HDL-C levels were calculated based on the following formula: Non-HDL-C=TC−HDL-C (mmol/L) Test Results Total Cholesterol Levels

[1] = white mouse blood, 24 h after P-407 200 mg/kg i.p., n = 10

CC(C)c1c(C(=O)Nc2ccccc2)c(-c2ccccc2)c(-c2ccc(F)cc2)n1CC[C@@H](O)C[C@@H](O)CC(=O)O [Atorvastatin, atorvastatin]
Non-HDL-cholesterol level (Non-HDL-C=TC−HDL-C, white mouse blood, 24 h after P-407, n = 10): 6.08 ± 0.88 mmol/L
Non-HDL-cholesterol: Reduction in comparison with the model (P-407 model): 12.1%
Total cholesterol: Reduction in comparison with the model batch (P-407 model): 5.7%
HDL-C level change versus model batch (↑ increase) (P-407 model, given with ↑): (↑ 19.1%)
Total cholesterol: Reduction in comparison with the model batch (P-407 model, listed as atorvastatin): 5.7%
Triglyceride: Reduction in comparison with the model batch (P-407 model, negative = increase): −46.3%
HDL-C level [1]: 2.12 ± 0.41 mmol/L
Total cholesterol level [1]: 8.20 ± 1.01 mmol/L
Triglyceride level [1]: 9.77 ± 1.05 mmol/L
